The text below walks through data of US20100022652A1, “Antimicrobial and Anticoagulant Compositions and Methods” (Tyco Healthcare Group LP, priority 2008, published 2010).

Test [1] concerns Pseudomonas aeruginosa (ATCC 27853). As to the kind of experiment: Checkerboard titration / micro-dilution antimicrobial synergy evaluation (MIC, FIC). The class given is cell-based.
Experimental: The combinations having an FIC index of ≦0.5 are considered synergistic while a FIC index of >0.5 but ≦1 are considered partially synergistic.
First, potential antimicrobial synergy in a composition having a combination of EDTA and NAC components was investigated with respect to the Pseudomonas aeruginosa (ATCC 27853) microorganism.
According to this method the stock solutions are prepared having a concentration equivalent or higher than twice the MIC of the components among which synergy is to be tested.
As the solutions get turbid, a higher optical density values generated. Generally speaking, increased turbidity, and thus higher optical density readings, are indicative of the presence of micro organisms in the solution. During analysis of the samples, optical density measurements above a predetermined cutoff value is indicative that there are microorganisms present in the solutions or samples, and are thus characterized by positive growth (+), while optical density readings which fall below the cutoff value can be characterized by negative growth (−). A number of the OD measurements were made (OD1, OD2, OD3), and the mean value calculated.
Test [2] has as its system clot formation in normal anticoagulated plasma. As to the kind of experiment: Prothrombin time (PT) assay, PT converted to INR. The class given is biochemical, human. The conditions noted are these: ISI 1.65.
Experimental: The Prothrombin Time (PT) Assay primarily measures the time required for the clot formation in a test sample. Per the assay, the test samples first mixed with normal anticoagulated plasma in a ratio of 1:9 and incubated for 2 minutes at Room temperature. Then tissue thromboplastin with calcium ions is added to the test samples. The samples are then incubated for 2 minutes at 37° C. Tissue thromboplastin and calcium ions is added to normal anticoagulated plasma mixed with formulation, to initiate the clotting mechanism leading to formation of a fibrin clot. The coagulation analyzer is utilized to record the PT required for clot formation. The PT so obtained is then converted to International Normalized Ratio (INR) by utilizing the following formula:
INR=(PTTest Sample/PTControl Level 1)^ISI;
wherein ISI (International Sensitivity Index)—indicates the sensitivity of individual thromboplastin. The value of ISI utilized in the anticoagulant investigations reported herein is 1.65.
If the deficiency exists within coagulation pathway (for example test blood contains heparin or other anticoagulant) the time required for clot formation will be prolonged. Any INR values ≧ that of abnormal plasma level 2 (e.g., TriniCHECK™ Level 2; Trinity Biotech) are considered indicative of deficiency within the coagulation pathway, and thus indicative of highly anticoagulative properties. Any INR values higher than 5.5 are considered indicative of highly anticoagulant behavior. Therefore, the strength of an anticoagulant can be characterized by the INR value, i.e., the larger the INR value the stronger the anticoagulant properties.

On to `O=C([O-])CN(CCN(CC(=O)[O-])CC(=O)O)CC(=O)O.[Na+].[Na+]` [DEDTA, disodium EDTA], for which the MIC in test [1] was found to be 0.25 wt %. Also, the INR in test [2] (4 wt % DEDTA alone) is listed as 16.7; in test [2] (at 8 wt %) it was more than 233.

Take `CC(=O)N[C@@H](CS)C(=O)O` [NAC, N-Acetyl Cysteine]: the MIC in test [1] is 0.25 wt %. This compound also had an INR in test [2] (at 8 wt %) of more than 26.
